According to US20200390100A1, “SUBSTITUTED N-HETEROCYCLYL- AND N-HETEROARYL-TETRAHYDROPYRIMIDINONES AND THE SALTS THEREOF, AND THE USE OF SAME AS HERBICIDAL ACTIVE SUBSTANCES” (Bayer Aktiengesellschaft, priority 2017, published 2020):

Assays:
Abutilon theophrasti [1] = assay: Herbicidal pre-emergence action (Part 2), 1280 g/ha; assay type: in vivo; details: application rate 1280 g/ha, scored visually after about 3 weeks, Table D5
In short: (§1)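 Visual percent activity, scored roughly 3 weeks after treatment relative to untreated pots (100% meaning plants died), is reported. Compounds as wettable powders or emulsion concentrates with 0.5% additive were applied to the soil surface over freshly sown seeds at 600 L water/ha.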

Amaranthus retroflexus [2] = assay: as above; assay type: in vivo; details: application rate 1280 g/ha, scored visually after about 3 weeks, Table D6
In short: as §1

Matricaria inodora [3] = assay: as above; assay type: in vivo; details: application rate 1280 g/ha, scored visually after about 3 weeks, Table D7
In short: as §1

Stellaria media [4] = assay: as above; assay type: in vivo; details: application rate 1280 g/ha, scored visually after about 3 weeks, Table D8
In short: as §1

Echinochloa crus-galli [5] = assay: as above; assay type: in vivo; details: application rate 1280 g/ha, scored visually after about 3 weeks, Table D1
In short: as §1

Lolium rigidum [6] = assay: as above; assay type: in vivo; details: application rate 1280 g/ha, scored visually after about 3 weeks, Table D2
In short: as §1

Setaria viridis [7] = assay: as above; assay type: in vivo; details: application rate 1280 g/ha, scored visually after about 3 weeks, Table D4
In short: as §1

Poa annua [8] = assay: as above; assay type: in vivo; details: application rate 1280 g/ha, scored visually after about 3 weeks, Table D3
In short: as §1

Abutilon theophrasti [9] = assay: Herbicidal post-emergence action (Part 2), 1280 g/ha; assay type: in vivo; details: application rate 1280 g/ha, rated visually after about 3 weeks, Table C4
In short: (§2)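 Post-emergence greenhouse test: one-leaf-stage weeds (2–3 wk after sowing, sandy loam) sprayed onto green parts; WP/EC in water + 0.5% additive, 600 L/ha. Visual rating ~3 wk, 0–100% vs untreated.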

Amaranthus retroflexus [10] = assay: as above; assay type: in vivo; details: application rate 1280 g/ha, rated visually after about 3 weeks, Table C5
In short: as §2

Matricaria inodora [11] = assay: as above; assay type: in vivo; details: application rate 1280 g/ha, rated visually after about 3 weeks, Table C6
In short: as §2

Stellaria media [12] = assay: as above; assay type: in vivo; details: application rate 1280 g/ha, rated visually after about 3 weeks, Table C7
In short: as §2

Echinochloa crus-galli [13] = assay: as above; assay type: in vivo; details: post-emergence (Part 2), application rate 1280 g/ha, rated visually after about 3 weeks vs untreated controls
In short: as §2

Setaria viridis [14] = assay: as above; assay type: in vivo; details: application rate 1280 g/ha, rated visually after about 3 weeks, Table C3
In short: as §2

Poa annua [15] = assay: as above; assay type: in vivo; details: application rate 1280 g/ha, rated visually after about 3 weeks, Table C2
In short: as §2

photosystem II (PS II) = target: T1, photosystem II (PS II) (Spinacia oleracea, UniProt P69560); assay: Measurement of PS II activity in thylakoid membranes (DCPIP reduction); assay type: biochemical, spinach; details: PS II activity in spinach thylakoid membranes, Table E1; read-out: Effect
T1 construct: the chloroplasts were osmotically ruptured and the thylakoid membranes were then obtained by centrifugation; from tissue; host or cells: fresh spinach leaves; thylakoid membrane preparation from isolated chloroplasts
In short: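 Thylakoid membranes from osmotically ruptured spinach chloroplasts in 50 mM phosphate pH 6.8, 10 mM KCl; compounds added from 100 μM DMSO solution (2.5% DMSO final), 120 μM DCPIP final. DCPIP reduction under light tracked as absorbance decrease at 595 nm over 10 min at 22 °C; % inhibition binned, metribuzin as plate standard.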

Abutilon theophrasti [16] = assay: Pre-emergence herbicidal action, greenhouse, 320 g/ha; assay type: in vivo; details: application rate 320 g/ha, scored visually after about 3 weeks vs untreated controls
In short: (§3)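 Sow seeds in soil-filled pots, cover. Spray compound (WP/EC, aqueous, +0.5% additive) on covering soil. Hold under good growth conditions ~3 wk. Score % effect visually vs untreated.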

Amaranthus retroflexus [17] = assay: as above; assay type: in vivo; details: application rate 320 g/ha, scored visually after about 3 weeks vs untreated controls
In short: as §3

Matricaria inodora [18] = assay: as above; assay type: in vivo; details: application rate 320 g/ha, scored visually after about 3 weeks vs untreated controls
In short: as §3

Pharbitis purpurea [19] = assay: as above; assay type: in vivo; details: application rate 320 g/ha, Table B12
In short: as §3

Stellaria media [20] = assay: as above; assay type: in vivo; details: application rate 320 g/ha, scored visually after about 3 weeks vs untreated controls
In short: as §3

Veronica persica [21] = assay: as above; assay type: in vivo; details: application rate 320 g/ha, Table B13
In short: as §3

Polygonum convolvulus [22] = assay: as above; assay type: in vivo; details: application rate 320 g/ha, scored visually after about 3 weeks vs untreated controls
In short: as §3

Viola tricolor [23] = assay: as above; assay type: in vivo; details: application rate 320 g/ha, Table B8
In short: as §3

Setaria viridis [24] = assay: as above; assay type: in vivo; details: application rate 320 g/ha, Table B11
In short: as §3

Alopecurus myosuroides [25] = assay: as above; assay type: in vivo; details: application rate 320 g/ha, scored visually after about 3 weeks vs untreated controls
In short: as §3

Hordeum murinum [26] = assay: as above; assay type: in vivo; details: application rate 320 g/ha, Table B14
In short: as §3

Abutilon theophrasti [27] = assay: Post-emergence herbicidal action, greenhouse, 320 g/ha; assay type: in vivo; details: application rate 320 g/ha, rated visually after about 3 weeks vs untreated controls
In short: (§4)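 Plants treated post-emergence at the one-leaf stage, 2 to 3 weeks after sowing in sandy loam, with WP or EC formulations plus 0.5% additive at 320 g/ha. Visual rating about 3 weeks later versus untreated controls (100% = dead, 0% = like control).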

Amaranthus retroflexus [28] = assay: as above; assay type: in vivo; details: application rate 320 g/ha, rated visually after about 3 weeks vs untreated controls
In short: as §4

Pharbitis purpurea [29] = assay: as above; assay type: in vivo; details: application rate 320 g/ha, rated visually after about 3 weeks vs untreated controls
In short: as §4

Stellaria media [30] = assay: as above; assay type: in vivo; details: application rate 320 g/ha, rated visually after about 3 weeks vs untreated controls
In short: as §4

Echinochloa crus-galli [31] = assay: as above; assay type: in vivo; details: application rate 320 g/ha, rated visually after about 3 weeks vs untreated controls
In short: as §4

Polygonum convolvulus [32] = assay: as above; assay type: in vivo; details: application rate 320 g/ha, rated visually after about 3 weeks vs untreated controls
In short: as §4

Viola tricolor [33] = assay: as above; assay type: in vivo; details: application rate 320 g/ha, rated visually after about 3 weeks vs untreated controls
In short: as §4

Setaria viridis [34] = assay: as above; assay type: in vivo; details: application rate 320 g/ha, rated visually after about 3 weeks vs untreated controls
In short: as §4

Alopecurus myosuroides [35] = assay: as above; assay type: in vivo; details: application rate 320 g/ha, rated visually after about 3 weeks vs untreated controls
In short: as §4

Echinochloa crus-galli [36] = assay: Pre-emergence herbicidal action, greenhouse, 320 g/ha; assay type: in vivo; details: application rate 320 g/ha, scored visually after about 3 weeks vs untreated controls
In short: as §3

Avena fatua = assay: as above; assay type: in vivo; details: application rate 320 g/ha, scored visually after about 3 weeks vs untreated controls
In short: as §3

Matricaria inodora [37] = assay: Post-emergence herbicidal action, greenhouse, 320 g/ha; assay type: in vivo; details: application rate 320 g/ha, rated visually after about 3 weeks vs untreated controls
In short: as §4

Veronica persica [38] = assay: as above; assay type: in vivo; details: application rate 320 g/ha, rated visually after about 3 weeks vs untreated controls
In short: as §4

Lolium rigidum [39] = assay: as above; assay type: in vivo; details: application rate 320 g/ha, rated visually after about 3 weeks vs untreated controls
In short: as §4

Hordeum murinum [40] = assay: as above; assay type: in vivo; details: application rate 320 g/ha, rated visually after about 3 weeks vs untreated controls
In short: as §4

Digitaria sanguinalis = assay: as above; assay type: in vivo; details: application rate 320 g/ha, rated visually after about 3 weeks vs untreated controls
In short: as §4

SMILES | Abutilon theophrasti (Abutilon theophrasti [1]) [%] | Amaranthus retroflexus (Amaranthus retroflexus [2]) [%] | Abutilon theophrasti (efficacy in %) (Abutilon theophrasti [16]) [%] | Amaranthus retroflexus (efficacy in %) (Amaranthus retroflexus [17]) [%] | Matricaria inodora (efficacy in %) (Matricaria inodora [18]) [%] | Pharbitis purpurea (efficacy in %) (Pharbitis purpurea [19]) [%] | Stellaria media (efficacy in %) (Stellaria media [20]) [%] | Veronica persica (efficacy in %) (Veronica persica [21]) [%] | Polygonum convolvulus (efficacy in %) (Polygonum convolvulus [22]) [%] | Viola tricolor (efficacy in %) (Viola tricolor [23]) [%] | Setaria viridis (efficacy in %) (Setaria viridis [24]) [%] | Alopecurus myosuroides (efficacy in %) (Alopecurus myosuroides [25]) [%] | Hordeum murinum (efficacy in %) (Hordeum murinum [26]) [%] | Abutilon theophrasti (efficacy in %) (Abutilon theophrasti [27]) [%] | Amaranthus retroflexus (efficacy in %) (Amaranthus retroflexus [28]) [%] | Pharbitis purpurea (efficacy in %) (Pharbitis purpurea [29]) [%] | Stellaria media (efficacy in %) (Stellaria media [30]) [%] | Polygonum convolvulus (efficacy in %) (Polygonum convolvulus [32]) [%] | Viola tricolor (efficacy in %) (Viola tricolor [33]) [%] | Setaria viridis (efficacy in %) (Setaria viridis [34]) [%] | other results
CC(C)C(=O)OC1CCN(C)C(=O)N1c1cc(C(C)(C)C)on1 (stereo not drawn) [I.5-162] | 100 | 100 |  |  |  |  |  |  |  |  |  |  |  |  |  |  |  |  |  |  | Matricaria inodora (Matricaria inodora [3]): 100%; Stellaria media (Stellaria media [4]): 100%; Echinochloa crus-galli (Echinochloa crus-galli [5]): 100%; Lolium rigidum (Lolium rigidum [6]): 90%; Setaria viridis (Setaria viridis [7]): 100%; Poa Annua (Poa annua [8]): 100%; Abutilon theophrasti (Abutilon theophrasti [9]): 100%; Amaranthus retroflexus (Amaranthus retroflexus [10]): 100%; Matricaria inodora (Matricaria inodora [11]): 100%; Stellaria media (Stellaria media [12]): 100%; Echinochloa crus-galli (Echinochloa crus-galli [13]): 100%; Setaria viridis (Setaria viridis [14]): 100%; Poa Annua (Poa annua [15]): 100%
CN1CCC(O)N(c2cc(C(C)(C)C)n(C)n2)C1=O (stereo not drawn) [I.1-315] | 100 | 100 |  |  |  |  |  |  |  |  |  |  |  |  |  |  |  |  |  |  | Matricaria inodora (Matricaria inodora [3]): 100%; Stellaria media (Stellaria media [4]): 100%; Setaria viridis (Setaria viridis [7]): 100%; Poa Annua (Poa annua [8]): 90%; Abutilon theophrasti (Abutilon theophrasti [9]): 100%; Amaranthus retroflexus (Amaranthus retroflexus [10]): 100%; Matricaria inodora (Matricaria inodora [11]): 90%; Stellaria media (Stellaria media [12]): 100%; Echinochloa crus-galli (Echinochloa crus-galli [13]): 100%; Setaria viridis (Setaria viridis [14]): 100%; Poa Annua (Poa annua [15]): 100%
CC(=O)OC1CCN(C)C(=O)N1c1cc(C(C)(C)C)on1 (stereo not drawn) [I.2-162, 3-(5-tert-Butyl-1,2-oxazol-3-yl)-1-methyl-2-oxohexahydropyrimidin-4-yl Acetate] |  |  | 100 | 100 | 100 | 100 | 100 | 90 | 100 | 100 | 90 | 90 | 80 | 100 | 100 | 100 | 100 | 100 | 100 | 100 | inhibition at 100 µM (photosystem II (PS II)): 70 to 90%; Echinochloa crus-galli (efficacy in %) (Echinochloa crus-galli [31]): 80%; Alopecurus myosuroides (efficacy in %) (Alopecurus myosuroides [35]): 80%
CCC(=O)OC1CCN(C)C(=O)N1c1cc(C(C)(C)C)on1 (stereo not drawn) [I.3-162, 3-(5-tert-Butyl-1,2-oxazol-3-yl)-1-methyl-2-oxohexahydropyrimidin-4-yl Propionate] |  |  | 100 | 100 | 100 | 100 | 90 | 100 | 100 | 100 | 100 | 80 | 90 | 100 | 100 | 100 | 100 | 100 | 100 | 90 | inhibition at 100 µM (photosystem II (PS II)): 50 to 70%; Echinochloa crus-galli (efficacy in %) (Echinochloa crus-galli [36]): 80%; Avena fatua (efficacy in %) (Avena fatua): 100%; Matricaria inodora (efficacy in %) (Matricaria inodora [37]): 100%; Veronica persica (efficacy in %) (Veronica persica [38]): 90%; Lolium rigidum (efficacy in %) (Lolium rigidum [39]): 80%; Hordeum murinum (efficacy in %) (Hordeum murinum [40]): 90%
CC(C)CC(=O)OC1CCN(C)C(=O)N1c1cc(C(C)(C)C)on1 (stereo not drawn) [I.7-162, 3-(5-tert-Butyl-1,2-oxazol-3-yl)-1-methyl-2-oxohexahydropyrimidin-4-yl 3-methylbutanoate] |  |  | 100 | 100 | 100 | 100 | 100 | 80 | 90 | 100 | 100 | 90 | 90 | 100 | 100 | 100 | 100 | 90 | 100 | 100 | Echinochloa crus-galli (efficacy in %) (Echinochloa crus-galli [36]): 80%; Avena fatua (efficacy in %) (Avena fatua): 100%; Digitaria sanguinalis (efficacy in %) (Digitaria sanguinalis): 80%; Matricaria inodora (efficacy in %) (Matricaria inodora [37]): 100%; Veronica persica (efficacy in %) (Veronica persica [38]): 90%; Alopecurus myosuroides (efficacy in %) (Alopecurus myosuroides [35]): 90%; Hordeum murinum (efficacy in %) (Hordeum murinum [40]): 80%
